Columns and labels:
tonic convulsion = test: antipentylenetetrazole test indicating anticonvulsive activities; format: in vivo; conditions: Mus musculus; oral, 60 min before s.c. pentylenetetrazole 125 mg/kg; mortality observed for 2 h; DS male mice
Procedure: In determination of the antipentylenetetrazole activity, four test lots consisting of 4×10 DS male mice were employed. Within 15 minutes after single subcutaneous injection of 125 mg/kg (body weight of mouse) of pentylenetetrazole (a kind of convulsion reagent given as an aqueous solution), the mice were attacked by tonic convulsion which killed them. Test compound was orally administered 60 minutes before said s.c. injection. Observation was made for two hours postinjection of pentylenetetrazole. Anticonvulsant activity was determined in mortality percentage between 100% (all the mice dead) and 0% (all the mice alive). Test results are shown by preventive ED50 value (Effective Doses in mg/kg, a theoretical level of 50% alive and 50% dead)[Goodman, et al.: J. Pharmacol., 108, 168 (1953)].

acute toxicity = conditions: mouse, in vivo; oral; DS infant male mice, 20 to 23 g; observed 72 hours; Bliss method
Procedure: Test compounds were orally administered to DS infant male mice with four toxic doses. For each dose 10 mice were used, their body weights ranging from 20 to 23 grams. […] Mortality was calculated by the Bliss method [Bliss: Ann. Appln. Biol., 23, 134-307 (1935); Quant. J. Pharmacol., 11, 192 (1938)].

benzodiazepine receptors = test: radio receptor assay using receptors extracted from brains of rats and 3H-diazepam; format: binding; conditions: receptors extracted from rat brains

Row | Compound | ED50 (tonic convulsion) [mg/kg] | LD50 at 72 h (acute toxicity) [mg/kg] | Ki (benzodiazepine receptors) [nM]
1 | CC(=O)OCc1nnc2n1-c1ccc(Cl)cc1C(c1ccccc1Cl)OC2 (stereo not drawn) [Compound 4] | 1.2 | > 1000 | –
2 | OCc1nnc2n1-c1ccc(Cl)cc1C(c1ccccc1Cl)OC2 (stereo not drawn) [1-Hydroxymethyl-6-(2-chlorophenyl)-8-chloro-4H,6H-(1,2,4)triazolo[4,3-a][4,1]benzoxazepine] | – | – | 3.45
3 | OCc1nnc2n1-c1ccc(Cl)cc1C(c1ccccc1Cl)OC2 (stereo not drawn) [Compound 6] | 3.25 | > 1000 | –
4 | COCc1nnc2n1-c1ccc(Cl)cc1C(c1ccccc1Cl)OC2 (stereo not drawn) [Compound 3] | 2.38 | > 1000 | –
5 | Clc1ccc2c(c1)C(c1ccccc1Cl)OCc1nnc(CN3CCCC3)n1-2 (stereo not drawn) [Compound 9] | 4.63 | > 1000 | –
6 | Clc1ccc2c(c1)C(c1ccccc1Cl)OCc1nncn1-2 (stereo not drawn) [Compound 1] | 1.25 | > 1000 | –
7 | Clc1ccc2c(c1)C(c1ccccc1Cl)OCc1nnc(CN3CCOCC3)n1-2 (stereo not drawn) [Compound 5] | 3.81 | > 1000 | –
8 | CN1C(=O)CN=C(c2ccccc2)c2cc(Cl)ccc21 [Diazepam, reference compound] | 1.2 | – | –
9 | CCCOCc1nnc2n1-c1ccc(Cl)cc1C(c1ccccc1Cl)OC2 (stereo not drawn) [Compound 11] | 3.09 | > 1000 | –
10 | CN(C)Cc1nnc2n1-c1ccc(Cl)cc1C(c1ccccc1Cl)OC2 (stereo not drawn) [Compound 8] | 1.02 | > 1000 | –
11 | CC(C)OCc1nnc2n1-c1ccc(Cl)cc1C(c1ccccc1Cl)OC2 (stereo not drawn) [Compound 10] | 2.42 | > 1000 | –
12 | CCOCc1nnc2n1-c1ccc(Cl)cc1C(c1ccccc1Cl)OC2 (stereo not drawn) [Compound 7] | 2.13 | > 1000 | –
13 | Cn1nc2n(c1=O)-c1ccc(Cl)cc1C(c1ccccc1Cl)OC2 (stereo not drawn) [Compound 12] | 3.46 | > 1000 | –
14 | Clc1ccc2c(c1)C(c1ccccc1Cl)OCc1nnc(N3CCOCC3)n1-2 (stereo not drawn) [Compound 2] | 4.26 | > 1000 | –
15 | CC(=O)OCCc1nnc2n1-c1ccc(Cl)cc1C(c1ccccc1Cl)OC2C (stereo not drawn) [Compound 14] | 1.67 | > 1000 | –
16 | CN1CCN=C(c2ccccc2)c2cc(Cl)ccc21 [Medazepam, reference compound] | – | > 1000 | –
17 | Cc1nnc2n1-c1ccc(Cl)cc1C(c1ccccc1C(F)(F)F)OC2 (stereo not drawn) [Compound 15] | 1.41 | > 1000 | –
18 | Cc1nnc2n1-c1ccc(Cl)cc1C(c1ccccc1Cl)OC2C (stereo not drawn) [Compound 13] | 1.19 | > 1000 | –
